Measurements from ChEMBL document CHEMBL5465560, “Selectivity Literature for EUbOPEN Chemogenomic Library” (2024).

Tests used:
[1] = target: T1, Serine/threonine-protein kinase BRSK2 (Homo sapiens) (UniProt Q8IWQ3); experiment: Selectivity interaction (KinomeScan (DiscoverX)) EUB0000607a BRSK2; details: at 10 µM
T1 sequence (whole entry): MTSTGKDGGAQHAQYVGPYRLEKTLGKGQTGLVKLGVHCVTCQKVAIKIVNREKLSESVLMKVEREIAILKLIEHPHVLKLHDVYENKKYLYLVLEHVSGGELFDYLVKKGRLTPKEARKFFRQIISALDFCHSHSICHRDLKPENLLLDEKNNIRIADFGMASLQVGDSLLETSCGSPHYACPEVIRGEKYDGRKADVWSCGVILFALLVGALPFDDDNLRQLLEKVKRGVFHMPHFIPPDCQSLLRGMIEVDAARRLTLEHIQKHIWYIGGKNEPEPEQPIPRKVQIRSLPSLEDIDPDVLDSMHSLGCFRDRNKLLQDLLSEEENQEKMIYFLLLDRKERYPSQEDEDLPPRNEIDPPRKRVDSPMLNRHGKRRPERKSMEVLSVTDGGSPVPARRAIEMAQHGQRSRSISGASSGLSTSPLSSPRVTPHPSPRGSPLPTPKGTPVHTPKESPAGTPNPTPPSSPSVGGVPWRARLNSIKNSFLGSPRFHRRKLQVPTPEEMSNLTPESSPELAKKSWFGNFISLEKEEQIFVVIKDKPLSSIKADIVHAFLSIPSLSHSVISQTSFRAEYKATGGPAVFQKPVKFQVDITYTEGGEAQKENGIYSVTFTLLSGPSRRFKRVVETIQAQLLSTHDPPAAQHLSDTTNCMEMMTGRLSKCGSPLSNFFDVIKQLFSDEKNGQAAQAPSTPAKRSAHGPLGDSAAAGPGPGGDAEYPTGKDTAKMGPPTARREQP

[2] = target: Ephrin type-A receptor 7 (Homo sapiens) (UniProt Q15375); experiment: Selectivity interaction (Kinase panel (Invitrogen)) EUB0000639a EPHA7; details: at 200 nM
[3] = target: Dual specificity mitogen-activated protein kinase kinase 2 (Homo sapiens) (UniProt P36507); experiment: Selectivity interaction (ActivX KiNativ screen (kinase selectivity in THP-1 cell lysates)) EUB0000639a MAP2K2; type: subcellular; details: lysate, at 1 µM
Chain of Dual specificity mitogen-activated protein kinase kinase 2 (Homo sapiens) (P36507 whole entry): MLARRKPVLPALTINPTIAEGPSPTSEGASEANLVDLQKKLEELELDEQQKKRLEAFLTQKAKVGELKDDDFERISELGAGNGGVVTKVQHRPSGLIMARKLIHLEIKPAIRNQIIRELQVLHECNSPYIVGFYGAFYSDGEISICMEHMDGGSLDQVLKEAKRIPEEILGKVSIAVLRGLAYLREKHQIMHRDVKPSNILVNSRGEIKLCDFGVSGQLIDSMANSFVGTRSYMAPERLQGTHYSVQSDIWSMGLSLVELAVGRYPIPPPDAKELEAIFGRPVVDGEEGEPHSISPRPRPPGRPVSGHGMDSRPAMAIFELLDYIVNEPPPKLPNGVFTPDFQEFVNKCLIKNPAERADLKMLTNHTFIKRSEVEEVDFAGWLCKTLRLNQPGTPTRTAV

[4] = target: Mitogen-activated protein kinase kinase kinase 10 (Homo sapiens) (UniProt Q02779); experiment: Selectivity interaction (Kinase panel (Invitrogen)) EUB0000639a MAP3K10; details: at 200 nM
Chain of Mitogen-activated protein kinase kinase kinase 10 (Homo sapiens) (Q02779 whole entry, looked up): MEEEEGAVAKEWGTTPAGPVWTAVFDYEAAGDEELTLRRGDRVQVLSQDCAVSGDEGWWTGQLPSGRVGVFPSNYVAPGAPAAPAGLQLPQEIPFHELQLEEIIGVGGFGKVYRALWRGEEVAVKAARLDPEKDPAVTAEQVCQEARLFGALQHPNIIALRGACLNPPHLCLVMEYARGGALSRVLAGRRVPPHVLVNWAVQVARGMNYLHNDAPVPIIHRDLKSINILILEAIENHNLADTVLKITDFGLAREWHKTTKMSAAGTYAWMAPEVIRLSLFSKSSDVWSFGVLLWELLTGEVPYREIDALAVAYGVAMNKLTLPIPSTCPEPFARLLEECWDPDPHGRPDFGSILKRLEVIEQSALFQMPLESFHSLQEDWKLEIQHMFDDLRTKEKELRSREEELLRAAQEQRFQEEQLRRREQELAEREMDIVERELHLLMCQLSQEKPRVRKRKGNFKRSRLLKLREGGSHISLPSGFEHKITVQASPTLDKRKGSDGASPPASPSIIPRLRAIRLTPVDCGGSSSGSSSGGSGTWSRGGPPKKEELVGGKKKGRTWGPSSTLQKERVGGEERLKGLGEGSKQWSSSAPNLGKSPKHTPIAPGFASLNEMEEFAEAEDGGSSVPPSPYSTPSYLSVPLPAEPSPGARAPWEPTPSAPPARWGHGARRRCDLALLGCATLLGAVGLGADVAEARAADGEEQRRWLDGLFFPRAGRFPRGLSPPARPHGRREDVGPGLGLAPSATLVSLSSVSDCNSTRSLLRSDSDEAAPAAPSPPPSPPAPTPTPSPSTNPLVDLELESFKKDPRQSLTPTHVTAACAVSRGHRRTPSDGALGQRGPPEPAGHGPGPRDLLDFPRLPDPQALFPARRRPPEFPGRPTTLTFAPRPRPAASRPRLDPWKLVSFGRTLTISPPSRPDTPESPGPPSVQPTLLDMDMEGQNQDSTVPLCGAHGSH

[5] = target: T2, Mitogen-activated protein kinase kinase kinase 3 (Homo sapiens) (UniProt Q99759); experiment: Selectivity interaction (ActivX KiNativ screen (kinase selectivity in THP-1 cell lysates)) EUB0000639a MAP3K3; type: subcellular; details: lysate, at 5 µM
T2 sequence (whole entry): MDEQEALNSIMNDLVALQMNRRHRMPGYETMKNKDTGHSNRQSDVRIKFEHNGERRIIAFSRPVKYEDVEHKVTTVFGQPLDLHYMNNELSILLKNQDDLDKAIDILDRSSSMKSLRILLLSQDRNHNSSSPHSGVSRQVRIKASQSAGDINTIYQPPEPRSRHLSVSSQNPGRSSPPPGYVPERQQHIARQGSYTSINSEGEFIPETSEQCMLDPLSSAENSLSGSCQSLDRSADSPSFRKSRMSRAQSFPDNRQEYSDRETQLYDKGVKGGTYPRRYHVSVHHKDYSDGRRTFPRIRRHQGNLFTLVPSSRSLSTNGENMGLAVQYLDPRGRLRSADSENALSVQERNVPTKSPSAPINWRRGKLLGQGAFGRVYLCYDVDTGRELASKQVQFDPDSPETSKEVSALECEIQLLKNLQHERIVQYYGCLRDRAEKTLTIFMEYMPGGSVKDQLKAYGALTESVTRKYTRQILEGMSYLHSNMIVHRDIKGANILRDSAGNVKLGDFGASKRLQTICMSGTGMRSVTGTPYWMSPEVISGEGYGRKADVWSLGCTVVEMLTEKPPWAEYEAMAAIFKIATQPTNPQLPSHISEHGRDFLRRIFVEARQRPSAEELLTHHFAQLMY

[6] = target: Tyrosine-protein kinase Fyn (Homo sapiens) (UniProt P06241); experiment: Selectivity interaction (ProQinase) EUB0000171b FYN
Chain of Tyrosine-protein kinase Fyn (Homo sapiens) (P06241 2-537 limits assumed): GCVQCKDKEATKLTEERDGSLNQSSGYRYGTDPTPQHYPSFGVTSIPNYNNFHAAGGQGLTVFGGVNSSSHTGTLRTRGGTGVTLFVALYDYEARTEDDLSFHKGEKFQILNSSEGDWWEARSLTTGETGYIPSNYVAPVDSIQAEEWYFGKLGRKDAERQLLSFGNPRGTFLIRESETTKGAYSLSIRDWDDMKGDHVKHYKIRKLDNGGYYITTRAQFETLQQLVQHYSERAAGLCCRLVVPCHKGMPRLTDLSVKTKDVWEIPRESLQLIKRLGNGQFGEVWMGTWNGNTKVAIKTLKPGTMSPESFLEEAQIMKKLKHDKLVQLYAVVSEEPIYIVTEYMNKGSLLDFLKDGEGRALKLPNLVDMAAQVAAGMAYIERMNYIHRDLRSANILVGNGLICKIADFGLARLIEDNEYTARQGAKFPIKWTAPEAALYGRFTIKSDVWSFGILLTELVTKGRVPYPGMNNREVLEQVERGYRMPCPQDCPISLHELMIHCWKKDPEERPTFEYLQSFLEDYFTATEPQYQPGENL

[7] = target: MAP kinase-activated protein kinase 2 (Homo sapiens, UniProt P49137); experiment: Selectivity interaction (ProQinase) EUB0000171b MAPKAPK2
Chain of MAP kinase-activated protein kinase 2 (P49137 whole entry, looked up): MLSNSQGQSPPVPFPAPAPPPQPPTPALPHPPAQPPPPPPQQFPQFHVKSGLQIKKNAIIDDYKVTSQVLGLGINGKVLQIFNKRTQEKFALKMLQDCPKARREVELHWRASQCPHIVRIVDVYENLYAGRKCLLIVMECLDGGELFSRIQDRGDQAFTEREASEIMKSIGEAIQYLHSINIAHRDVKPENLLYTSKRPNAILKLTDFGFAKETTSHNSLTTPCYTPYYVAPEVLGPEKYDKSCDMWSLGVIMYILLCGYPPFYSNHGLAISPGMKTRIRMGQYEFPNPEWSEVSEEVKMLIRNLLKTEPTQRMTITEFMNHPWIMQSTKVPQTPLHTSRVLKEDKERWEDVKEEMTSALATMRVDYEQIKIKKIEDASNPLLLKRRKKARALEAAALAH

[8] = target: Myosin light chain kinase, smooth muscle (Homo sapiens, UniProt Q15746); experiment: Selectivity interaction (KinomeScan (DiscoverX)) EUB0000045b MYLK; details: at 1 µM
Chain of Myosin light chain kinase, smooth muscle (Q15746 whole entry): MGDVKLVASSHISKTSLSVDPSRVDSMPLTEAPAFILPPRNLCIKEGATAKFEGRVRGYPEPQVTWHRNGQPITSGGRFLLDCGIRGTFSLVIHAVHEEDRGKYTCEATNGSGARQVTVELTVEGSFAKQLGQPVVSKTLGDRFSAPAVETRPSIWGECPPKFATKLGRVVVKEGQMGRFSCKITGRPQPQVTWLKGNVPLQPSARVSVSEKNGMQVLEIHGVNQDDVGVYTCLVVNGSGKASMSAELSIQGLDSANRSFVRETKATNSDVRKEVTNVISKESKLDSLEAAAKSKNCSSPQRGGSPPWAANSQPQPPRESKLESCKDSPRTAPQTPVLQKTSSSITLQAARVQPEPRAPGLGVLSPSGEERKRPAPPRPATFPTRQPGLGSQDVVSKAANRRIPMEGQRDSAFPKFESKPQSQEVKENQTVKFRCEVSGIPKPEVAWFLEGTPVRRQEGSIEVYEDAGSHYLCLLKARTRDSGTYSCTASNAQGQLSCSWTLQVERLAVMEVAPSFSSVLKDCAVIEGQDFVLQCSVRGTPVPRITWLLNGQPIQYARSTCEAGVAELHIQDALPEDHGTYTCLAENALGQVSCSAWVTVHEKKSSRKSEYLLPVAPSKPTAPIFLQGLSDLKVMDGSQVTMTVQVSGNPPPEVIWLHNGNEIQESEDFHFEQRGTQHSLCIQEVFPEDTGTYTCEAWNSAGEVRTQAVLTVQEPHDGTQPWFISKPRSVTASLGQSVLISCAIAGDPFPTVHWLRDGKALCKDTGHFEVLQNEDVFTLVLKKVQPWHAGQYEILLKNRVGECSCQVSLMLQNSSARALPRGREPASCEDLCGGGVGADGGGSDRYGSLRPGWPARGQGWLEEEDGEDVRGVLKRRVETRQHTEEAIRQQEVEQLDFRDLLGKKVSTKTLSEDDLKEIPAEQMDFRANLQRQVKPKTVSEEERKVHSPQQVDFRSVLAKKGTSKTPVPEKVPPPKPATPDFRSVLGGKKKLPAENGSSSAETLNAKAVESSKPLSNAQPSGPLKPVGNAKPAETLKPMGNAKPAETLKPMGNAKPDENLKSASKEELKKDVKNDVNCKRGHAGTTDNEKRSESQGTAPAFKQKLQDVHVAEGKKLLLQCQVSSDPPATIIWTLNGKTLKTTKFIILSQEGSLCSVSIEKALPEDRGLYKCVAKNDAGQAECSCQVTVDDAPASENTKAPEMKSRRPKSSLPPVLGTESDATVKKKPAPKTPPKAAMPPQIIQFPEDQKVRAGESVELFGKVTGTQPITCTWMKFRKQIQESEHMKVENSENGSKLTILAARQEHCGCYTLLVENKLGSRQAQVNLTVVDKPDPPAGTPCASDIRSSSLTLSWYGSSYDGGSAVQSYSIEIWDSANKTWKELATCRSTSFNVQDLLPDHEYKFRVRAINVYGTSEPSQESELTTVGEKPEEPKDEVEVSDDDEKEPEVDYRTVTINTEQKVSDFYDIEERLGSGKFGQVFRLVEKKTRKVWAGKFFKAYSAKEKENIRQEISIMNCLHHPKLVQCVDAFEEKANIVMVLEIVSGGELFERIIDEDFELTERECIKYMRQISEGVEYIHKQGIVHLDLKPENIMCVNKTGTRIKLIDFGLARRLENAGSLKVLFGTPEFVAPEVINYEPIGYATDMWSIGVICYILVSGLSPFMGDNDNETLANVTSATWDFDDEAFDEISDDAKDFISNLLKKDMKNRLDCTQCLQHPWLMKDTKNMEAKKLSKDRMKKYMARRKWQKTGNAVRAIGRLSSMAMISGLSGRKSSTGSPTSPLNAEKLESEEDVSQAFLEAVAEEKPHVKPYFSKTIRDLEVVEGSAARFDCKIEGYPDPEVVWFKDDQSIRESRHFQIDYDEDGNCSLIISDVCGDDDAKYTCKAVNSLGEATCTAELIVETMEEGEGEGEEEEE

[9] = target: T3, Serine/threonine-protein kinase MAK (Homo sapiens) (UniProt P20794); experiment: Selectivity interaction (KinomeScan (DiscoverX)) EUB0000229b MAK; details: at 10 µM
T3 sequence (whole entry): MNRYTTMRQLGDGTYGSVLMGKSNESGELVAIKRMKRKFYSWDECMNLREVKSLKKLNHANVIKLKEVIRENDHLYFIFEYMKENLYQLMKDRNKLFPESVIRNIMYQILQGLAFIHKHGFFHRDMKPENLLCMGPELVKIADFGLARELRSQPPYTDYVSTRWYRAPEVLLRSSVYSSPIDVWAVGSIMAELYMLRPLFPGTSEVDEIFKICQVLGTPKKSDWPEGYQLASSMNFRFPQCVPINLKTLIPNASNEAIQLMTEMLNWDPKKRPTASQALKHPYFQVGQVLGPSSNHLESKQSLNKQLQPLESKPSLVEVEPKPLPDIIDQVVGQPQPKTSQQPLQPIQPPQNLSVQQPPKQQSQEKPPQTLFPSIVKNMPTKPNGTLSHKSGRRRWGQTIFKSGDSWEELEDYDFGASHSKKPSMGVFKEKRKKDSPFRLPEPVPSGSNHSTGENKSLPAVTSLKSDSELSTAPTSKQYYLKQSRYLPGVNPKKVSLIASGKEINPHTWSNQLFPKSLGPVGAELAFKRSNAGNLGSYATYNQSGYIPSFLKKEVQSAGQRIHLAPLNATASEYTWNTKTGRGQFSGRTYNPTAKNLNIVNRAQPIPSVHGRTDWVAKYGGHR

[10] = target: 5'-AMP-activated protein kinase catalytic subunit alpha-2 (Homo sapiens) (UniProt P54646); experiment: Selectivity interaction (KinomeScan (DiscoverX)) EUB0000618a PRKAA2; details: at 10 µM
Chain of 5'-AMP-activated protein kinase catalytic subunit alpha-2 (Homo sapiens) (P54646 whole entry, looked up): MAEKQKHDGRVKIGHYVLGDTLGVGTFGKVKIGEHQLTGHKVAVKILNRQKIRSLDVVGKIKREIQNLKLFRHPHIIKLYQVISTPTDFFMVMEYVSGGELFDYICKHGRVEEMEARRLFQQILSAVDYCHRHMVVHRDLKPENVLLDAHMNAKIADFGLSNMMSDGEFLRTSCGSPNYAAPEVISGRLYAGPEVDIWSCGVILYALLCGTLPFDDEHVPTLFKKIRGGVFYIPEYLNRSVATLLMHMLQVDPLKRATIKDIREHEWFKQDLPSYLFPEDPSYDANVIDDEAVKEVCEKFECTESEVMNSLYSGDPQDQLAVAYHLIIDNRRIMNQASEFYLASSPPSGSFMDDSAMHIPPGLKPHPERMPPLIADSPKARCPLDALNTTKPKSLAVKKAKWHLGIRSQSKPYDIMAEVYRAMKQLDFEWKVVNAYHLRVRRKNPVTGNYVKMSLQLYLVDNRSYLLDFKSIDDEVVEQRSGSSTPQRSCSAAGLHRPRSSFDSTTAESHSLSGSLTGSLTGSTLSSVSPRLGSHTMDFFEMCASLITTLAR

CNC(=O)Nc1ccc(-c2nc(N3CC4CCC(C3)O4)c3cnn(C4CCC5(CC4)OCCO5)c3n2)cc1 gave a % of control [1] of 100%.

For CC[C@@H]1[C@H](F)C(=O)N[C@@H]1COc1nccc2cc(C(N)=O)c(OC)cc12 [ZIMLOVISERTIB], the % of inhibition [2] was -7.96%, the % of inhibition [3] was -10.2% and the % of inhibition [4] was -1.18%. It also gave a % of inhibition [5] of -26.4%.

Molecule C=CC(=O)Nc1cccc(C(=O)Nc2ccc(Nc3cc(-c4[nH]c(SC)nc4C)ccn3)cc2)c1 has a % of control ([6]; at 1 µM) of 101%, a % of control ([6]; at 5 µM) of 100% and a % of control ([7]; at 1 µM) of 71%. It also gave a % of control ([7]; at 5 µM) of 42%.

For C=CC(=O)Nc1cc(-n2c(=O)ccc3cnc4ccc(-c5ccc(NS(C)(=O)=O)cc5)cc4c32)ccc1C, the % of control [8] was 100%.

Work on COc1cc(N(C)c2ccnc3ccc(C(F)(F)F)cc23)cc(OC)c1OC yielded a % binding [9] of 79%.

O[C@H]1CC[C@H](Nc2ncc3nc(Nc4c(F)cc(F)cc4F)n([C@H]4CCOC4)c3n2)CC1 showed a % of control [10] of 100%.
